From publication PMC9597602, “Metal Complexes as Antifungals? From a Crowd-Sourced Compound Library to the First In Vivo Experiments” (JACS Au, 2022)
“And” between values parts separate entries of the source, which are not always exact repeats. Equal values may be shown once. Read-outs that look alike come from different tables or passages of the source. Starred links: 1 amine or outer side, 2 acyl side, 3 side chain; linkers in the order of their positions; H or OH if unused. Positions of bridges follow the written chain, without caps; N, C: chain ends. Non-standard residues stand in square brackets, D forms with d. Residues, ends and D or L forms follow the SMILES beside them. *: point of attachment. pTerphenylCO(4''-OnC5H11) = CCCCCOc1ccc(-c2ccc(-c3ccc(C(=O)*)cc3)cc2)cc1; Orn(4R-OH,5R-OH) = O=C([C@H](C[C@@H](O)[C@@H](O)N[*:3])N[*:1])[*:2]; hTyr(3S-OH,4S-OH) = N[C@H](C(=O)O)[C@H](O)[C@@H](O)c1ccc(O)cc1; Pro(3S-OH,4S-Me) = C[C@H]1CN[C@H](C(=O)O)[C@H]1O; Hyp = O=C(O)[C@@H]1C[C@@H](O)CN1

Experiments:
Type in all cases: cell-based
[1] = test system: Candida albicans ATCC 90028 NCCLS11; assay: Antifungal MIC assay; conditions: Candida albicans, ATCC90028, comparator antifungals, read-out: MIC* Candida albicans ATCC 90028
Experimental: For the fungal assays, both fungi (yeast) strains were cultured for 3 days on Yeast Extract-Peptone Dextrose (YPD; Becton Dickinson 242720) agar at 30 °C. A yeast suspension of 1 × 10^6 to 5 × 10^6 CFU/mL (as determined by OD530) was prepared from five colonies from the agar plates, subsequently diluted with Yeast Nitrogen Base media (YNB; Becton Dickinson 233520), and added to each well of the compound containing plates (384-well plates, NBS; Corning CLS3640), giving a final cell density of 2.5 × 10^3 CFU/mL and a total volume of 50 μL. Plates were covered and incubated at 35 °C for 36 h without shaking. […] […], equivalent to ″optically clear-to-slightly hazy″ or MIC score of 0–1 as per CLSI guidelines M27 Reference Method for Broth Dilution Antifungal Susceptibility Testing of Yeasts. […] Fluconazole (Sigma F8929) was used as internal control on each plate for all strains. All compounds were tested as two technical replicates in two to four independent biological assays, n = 4–8 final data.

[2] = test system: Cryptococcus neoformans H99 ATCC 208821 type strain; assay: Antifungal MIC assay; conditions: Cryptococcus neoformans
Experimental: (§1) For the fungal assays, both fungi (yeast) strains were cultured for 3 days on Yeast Extract-Peptone Dextrose (YPD; Becton Dickinson 242720) agar at 30 °C. A yeast suspension of 1 × 10^6 to 5 × 10^6 CFU/mL (as determined by OD530) was prepared from five colonies from the agar plates, subsequently diluted with Yeast Nitrogen Base media (YNB; Becton Dickinson 233520), and added to each well of the compound containing plates (384-well plates, NBS; Corning CLS3640), giving a final cell density of 2.5 × 10^3 CFU/mL and a total volume of 50 μL. Plates were covered and incubated at 35 °C for 36 h without shaking. […] MIC values were recorded as the lowest concentration at which the growth was inhibited by ≥80%, equivalent to ″optically clear-to-slightly hazy″ or MIC score of 0–1 as per CLSI guidelines M27 Reference Method for Broth Dilution Antifungal Susceptibility Testing of Yeasts. […] Fluconazole (Sigma F8929) was used as internal control on each plate for all strains. All compounds were tested as two technical replicates in two to four independent biological assays, n = 4–8 final data.

[3] = test system: Candida auris CBS10913 JCM 15448; assay: Antifungal MIC assay, extended panel; conditions: Candidozyma auris, comparator antifungals, read-out: MIC* Candida auris CBS10913
Experimental: (§2) For the fungal assays, both fungi (yeast) strains were cultured for 3 days on Yeast Extract-Peptone Dextrose (YPD; Becton Dickinson 242720) agar at 30 °C. A yeast suspension of 1 × 10^6 to 5 × 10^6 CFU/mL (as determined by OD530) was prepared from five colonies from the agar plates, subsequently diluted with Yeast Nitrogen Base media (YNB; Becton Dickinson 233520), and added to each well of the compound containing plates (384-well plates, NBS; Corning CLS3640), giving a final cell density of 2.5 × 10^3 CFU/mL and a total volume of 50 μL. Plates were covered and incubated at 35 °C for 36 h without shaking. […] MIC […] Reference Method for Broth Dilution Antifungal Susceptibility Testing of Yeasts. […] Fluconazole (Sigma F8929) was used as internal control on each plate for all strains. All compounds were tested as two technical replicates in two to four independent biological assays, n = 4–8 final data.

[4] = test system: Candida auris CBS12373 KCTC 17810; assay: Antifungal MIC assay, extended panel; conditions: Candidozyma auris, comparator antifungals, read-out: MIC* Candida auris CBS12373
Experimental: as §2

[5] = test system: Candida glabrata ATCC 90030 NCCLS 84; assay: Antifungal MIC assay, extended panel; conditions: Nakaseomyces glabratus, ATCC90030, comparator antifungals
Experimental: as §1

[6] = test system: Candida tropicalis ATCC 750; assay: Antifungal MIC assay, extended panel; conditions: Candida tropicalis, ATCC750, comparator antifungals
Experimental: as §1

[7] = test system: Cryptococcus deuterogattii ATCC 32609 VGII; assay: Antifungal MIC assay, extended panel; conditions: Cryptococcus deuterogattii, ATCC32609, comparator antifungals
Experimental: as §1

[8] = test system: Cryptococcus deuterogattii CBS7750 VGII; Serotype B; assay: Antifungal MIC assay, extended panel; conditions: Cryptococcus deuterogattii, CBS7750, comparator antifungals
Experimental: as §1

[9] = ≥80% inhibition, converted with MW of Table S12
[10] = ATCC208821, comparator antifungals, MIC = ≥80% inhibition, read-out: MIC* Cryptococcus neoformans ATCC 208821
[11] = ATCC208821, comparator antifungals, ≥80% inhibition, converted with MW of Table S12, read-out: MIC* Cryptococcus neoformans ATCC 208821

| MIC ([1]; MIC = ≥80% inhibition) [mg/L] | MIC [1, 9] [µM] | MIC ([3]; MIC = ≥80% inhibition) [mg/L] | MIC [3, 9] [µM] | MIC ([4]; MIC = ≥80% inhibition) [mg/L] | MIC [4, 9] [µM] | MIC ([5]; MIC = ≥80% inhibition) [mg/L] | MIC [5, 9] [µM] | MIC ([6]; MIC = ≥80% inhibition) [mg/L] | MIC [6, 9] [µM] | MIC ([7]; MIC = ≥80% inhibition) [mg/L] | MIC ([8]; MIC = ≥80% inhibition) [mg/L] | MIC [8, 9] [µM] | MIC [2, 10] [mg/L] | MIC [2, 11] [µM] | Structure (SMILES) | MIC ([2]; ATCC208821, read-out: MIC* Cryptococcus neoformans ATCC 208821) | MIC [7, 9] [µM] |
| --- | --- | --- | --- | --- | --- | --- | --- | --- | --- | --- | --- | --- | --- | --- | --- | --- | --- |
| 0.391 to 1.56 | 0.357 to 1.43 | 6.25 | 5.72 | 12.5 | 11.4 | 6.25 to 12.5 | 5.72 to 11.4 | 1.56 | 1.43 | 0.1 to 0.63 | 0.06 to 0.1 | 0.029 to 0.089 | 0.098 to 1.56 | 0.089 to 1.43 | CC[C@H](C)C[C@H](C)CCCCCCCCC(=O)N[C@H]1C[C@@H](O)[C@@H](NCCN)NC(=O)[C@@H]2[C@@H](O)CCN2C(=O)[C@H]([C@H](O)CCN)NC(=O)[C@H]([C@H](O)[C@@H](O)c2ccc(O)cc2)NC(=O)[C@@H]2C[C@@H](O)CN2C(=O)[C@H]([C@@H](C)O)NC1=O [Caspofungin, reference compound] | – | – |
| 0.125 to 1 | 0.192 to 1.53 | 16 | 24.5 | > 128 | ≥ 196 | ≥ 64 | ≥ 98.2 | 2 to 4 | 3.01 to 6.13 | 4 to 16 | 1 to 8 | 1.53 to 12.3 | 2 to 8 | 3.01 to 12.3 | C[C@@H]1[C@H](O)[C@@H](C)/C=C/C=C/C=C/C=C/C=C/C=C/C=C/[C@H](O[C@@H]2O[C@H](C)[C@@H](O)[C@H](N)[C@@H]2O)C[C@@H]2O[C@](O)(C[C@@H](O)C[C@@H](O)[C@H](O)CC[C@@H](O)C[C@@H](O)CC(=O)O[C@H]1C)C[C@H](O)[C@H]2C(=O)O [Amphotericin B, reference compound] | – | 6.13 to 24.5 |
| ≤ 0.001 | ≤ 0.012 | ≤ 0.002 | ≤ 0.021 | ≤ 0.002 | ≤ 0.021 | > 32 | > 351 | 0.001 to 0.002 | 0.012 to 0.021 | 0.002 to 0.25 | 0.06 to 0.25 | 0.686 to 2.75 | 0.001 to 0.016 | 0.0107 to 0.172 | Nc1nc(=O)[nH]cc1F [5-Fluorocytosine, reference compound] | – | 0.021 to 2.75 |

| Structure (SMILES) | MIC ([1]; MIC = ≥80% inhibition) [mg/L] | MIC [1, 9] [µM] | MIC ([3]; MIC = ≥80% inhibition) [mg/L] | MIC [3, 9] [µM] | MIC ([4]; MIC = ≥80% inhibition) [mg/L] | MIC [4, 9] [µM] | MIC ([5]; MIC = ≥80% inhibition) [mg/L] | MIC [5, 9] [µM] | MIC ([6]; MIC = ≥80% inhibition) [mg/L] | MIC [6, 9] [µM] | MIC ([7]; MIC = ≥80% inhibition) [mg/L] | MIC ([8]; MIC = ≥80% inhibition) [mg/L] | MIC [8, 9] [µM] | MIC [2, 10] [mg/L] | MIC [2, 11] [µM] | MIC ([2]; ATCC208821, read-out: MIC* Cryptococcus neoformans ATCC 208821) | MIC [7, 9] [µM] |
| --- | --- | --- | --- | --- | --- | --- | --- | --- | --- | --- | --- | --- | --- | --- | --- | --- | --- |
| CCCCCOc1ccc(-c2ccc(-c3ccc(C(=O)N[C@H]4C[C@@H](O)[C@@H](O)NC(=O)[C@@H]5[C@@H](O)[C@@H](C)CN5C(=O)[C@H]([C@@H](C)O)NC(=O)[C@H]([C@H](O)[C@@H](O)c5ccc(O)cc5)NC(=O)[C@@H]5C[C@@H](O)CN5C(=O)[C@H]([C@@H](C)O)NC4=O)cc3)cc2)cc1 [Anidulafungin, reference compound] ({pTerphenylCO(4''-OnC5H11)}-[Orn(4R-OH,5R-OH)]T[Hyp][hTyr(3S-OH,4S-OH)]T[Pro(3S-OH,4S-Me)]; lactam 1-C) | 0.031 to 0.125 | 0.027 to 0.11 | 0.031 to 0.125 | 0.027 to 0.11 | 0.25 | 0.219 | 0.008 | 0.007 | 0.004 to 0.008 | 0.003 to 0.007 | 0.003 to 0.25 | 0.06 to 0.25 | 0.055 to 0.219 | – | – | 0.016 µg/mL to 0.125 µg/mL and 0.014 µM to 0.11 µM | 0.003 to 0.219 |
| CC[C@@H]([C@H](C)O)n1ncn(-c2ccc(N3CCN(c4ccc(OC[C@@H]5CO[C@@](Cn6cncn6)(c6ccc(F)cc6F)C5)cc4)CC3)cc2)c1=O [Posaconazole, reference compound] | 0.001 to 0.031 | 0.002 to 0.063 | 0.031 to 0.063 | 0.063 to 0.126 | 2 | 4.04 | 2 | 4.04 | 0.125 | 0.253 | 0.015 to 0.25 | 0.06 to 0.125 | 0.126 to 0.253 | 0.016 to 0.125 | 0.032 to 0.253 | – | 0.032 to 0.506 |
